# PubChem BioAssay (NCI)
#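 Each compound was tested at five concentrations against cells in 96-well plates for 48 hours. Abbreviation: GI50, concentration required for 50% inhibition of growth. TGI denotes the concentration required for complete inhibition of growth.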
# Tests used:
# Experiment in all cases: NCI anticancer screen, dose series, 48 h
# COLO 205 colon = test system: COLO 205 colon
# SK-MEL-28 melanoma = test system: SK-MEL-28 melanoma
# K-562 leukemia = test system: K-562 leukemia
# SK-MEL-5 melanoma = test system: SK-MEL-5 melanoma
# OVCAR-4 ovarian = test system: OVCAR-4 ovarian
# HL-60(TB) leukemia = test system: HL-60(TB) leukemia
# MOLT-4 leukemia = test system: MOLT-4 leukemia
# SK-OV-3 ovarian = test system: SK-OV-3 ovarian
# HT29 colon = test system: HT29 colon
# HCC-2998 colon = test system: HCC-2998 colon
Structure (SMILES),GI50 (COLO 205 colon) [µM],TGI (COLO 205 colon) [µM],GI50 (SK-MEL-28 melanoma) [µM],TGI (SK-MEL-28 melanoma) [µM],GI50 (K-562 leukemia) [µM],TGI (K-562 leukemia) [µM],GI50 (SK-MEL-5 melanoma) [µM],TGI (SK-MEL-5 melanoma) [µM],GI50 (OVCAR-4 ovarian) [µM],TGI (OVCAR-4 ovarian) [µM],GI50 (HL-60(TB) leukemia) [µM],TGI (HL-60(TB) leukemia) [µM],GI50 (MOLT-4 leukemia) [µM],TGI (MOLT-4 leukemia) [µM],GI50 (SK-OV-3 ovarian) [µM],TGI (SK-OV-3 ovarian) [µM],GI50 (HT29 colon) [µM],TGI (HT29 colon) [µM],TGI (HCC-2998 colon) [µM],GI50 (HCC-2998 colon) [µM]
Nc1cc(N)c2nc(-c3ccccc3)c(Oc3ccc(F)cc3)nc2c1,20,36.5,19.4,46.5,10.9,> 100,12.2,31.8,8.32,35.2,18.5,64.8,6.58,> 100,20.7,41.4,22.7,50.7,–,–
N#CC(C#N)SCc1ccccc1,–,> 33.2,–,> 100,–,–,–,> 85.6,–,> 100,–,14.7,–,> 100,–,> 49,–,62.8,> 100,–
Cc1cc(C)c2c(c1)CN1CN2Cc2cc(C)cc(C)c21,–,42.6,–,44.4,–,> 100,–,–,–,50.8,–,48.8,–,63.1,–,86.5,–,29.9,–,–
CC12CC3(C)CC(C)(C1)CC(N=[N+]=[N-])(C2)C3,–,> 100,–,> 100,–,> 100,–,> 100,–,> 100,–,–,–,> 100,–,> 100,–,> 100,> 100,–
Clc1ccccc1NN(Cc1ccccn1)c1ccccc1Cl,–,31.3,–,43.4,–,68.7,–,27.9,–,37.2,–,44,–,41.9,–,94.9,–,29.4,–,–
O=C(c1ccccc1)c1c(CC(O)c2cccnc2)n(C(=O)c2ccccc2)c2ccccc12 (centres undefined),–,40.6,–,31.5,–,75.7,–,31,–,42.4,–,49,–,47.7,–,–,–,35.6,35,–
CC(C)(C)OC(=O)NCC(C#N)CNC(=O)OC(C)(C)C,–,> 100,–,> 100,–,> 100,–,> 100,–,> 100,–,> 100,–,> 100,–,> 100,–,–,> 100,–
COc1cc(/C=C2\CN(C)CC3=C2Nc2nc(SC)[nH]c(=O)c2C3c2cc(OC)c(OC)c(OC)c2)cc(OC)c1OC (centres undefined),2.11,4.73,2.1,4.29,–,–,2.83,11.9,4.99,21.2,2.26,9.66,2.92,88,3.07,12.5,2.35,5.22,3.63,1.91
O=[N+]([O-])c1ccc(N=Nc2c(O)[nH]c3ccc([N+](=O)[O-])cc23)cc1,–,> 100,–,47.4,–,> 100,–,26.7,–,38.6,–,–,–,> 100,–,58.5,–,51.8,–,–
COc1ccc(C(C2=C(C)C(=O)c3ccccc3C2=O)c2ccc(C(C)C)cc(=O)c2O)cc1 (centres undefined),–,20.7,–,–,–,> 100,–,15.2,–,> 100,–,10.6,–,> 100,–,14.6,–,35.3,–,–
O=C(C(=O)c1ccc(Cc2ccc(C(=O)C(=O)c3ccccc3)cc2)cc1)c1ccccc1,–,> 100,–,> 100,–,> 100,–,> 100,–,> 100,–,> 100,–,–,–,> 100,–,> 100,> 100,–
